PubChem BioAssay (NCI)
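A five-concentration, 48-hour dose response in 96-well plates underlies each endpoint, interpolated linearly between surrounding concentrations. TGI: total growth inhibition.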

Key:
Assay in all cases: inhibition of tumour cell growth, NCI panel, 48 h
A549 NSCLC = tested on: A549 NSCLC
DU-145 prostate = tested on: DU-145 prostate
EKVX NSCLC = tested on: EKVX NSCLC
HS 578T breast = tested on: HS 578T breast
MOLT-4 leukemia = tested on: MOLT-4 leukemia
NCI/ADR-RES ovarian = tested on: NCI/ADR-RES ovarian
OVCAR-8 ovarian = tested on: OVCAR-8 ovarian
UACC-62 melanoma = tested on: UACC-62 melanoma
K-562 leukemia = tested on: K-562 leukemia
SR leukemia = tested on: SR leukemia

Row | SMILES | TGI (A549 NSCLC) [µM] | TGI (DU-145 prostate) [µM] | TGI (EKVX NSCLC) [µM] | TGI (HS 578T breast) [µM] | TGI (MOLT-4 leukemia) [µM] | TGI (NCI/ADR-RES ovarian) [µM] | TGI (OVCAR-8 ovarian) [µM] | TGI (UACC-62 melanoma) [µM] | TGI (K-562 leukemia) [µM] | TGI (SR leukemia) [µM]
1 | CC(C)(NC1=NCCO1)c1ccccc1 | > 100 | > 100 | > 100 | > 100 | > 100 | > 100 | > 100 | > 100 |  | 
2 | CC(C)C(C/C=C1\CC(CO)(COC(=O)CC(C(C)C)C(C)C)OC1=O)C(C)C (stereo not given) | 18.8 | 22 | 23.5 | 15.8 | 21.4 | 31.8 | 33 | 29 | 19.6 | 31.6
3 | CC1CCC2(CC1)N=C1CCC(C)CC1C1(CCC(C)CC1)N2 (stereo not given) | > 100 | > 100 |  | > 100 | 95.3 | > 100 | > 100 | > 100 | > 100 | > 100
4 | COc1nc2[nH]ccc2c(=O)n1C | > 100 |  | > 100 |  | > 100 |  | > 100 |  | > 100 | > 100
5 | CS(=O)(=O)O.[Ag] | 33.8 | 34.2 | 38.4 | > 100 | 5.3 | 74.3 | > 100 | 31.8 | 4.96 | 
6 | CN(C)CCn1c(=O)c2ccc3c4c(nn3CCN(C)C)c3ccccc3n(c1=O)c24 | 4.38 | 3.54 | 0.112 | 12.5 | 0.0581 | 2.58 | 0.288 | 1.34 | 2.49 | 1.85
7 | O=[N+]([O-])c1ccc(Cl)cc1C=NC12CC3CC(CC(C3)C1)C2 | > 100 | > 100 | > 100 | > 92.6 | 63.4 | > 86.9 | > 100 | > 100 | 43 | 26.4
8 | C/C(N=Nc1nc2ccccc2o1)=C1/C=CC=CN1O | > 100 | > 100 | 24.3 | > 100 | 6.3 | 89.1 | > 100 | > 100 | > 100 | 19.5
9 | Clc1ncnc2c1ncn2CCCCCCCCCCCCn1cnc2c(Cl)ncnc21 | 26.4 |  | 33 |  | 42.9 |  | 23.8 | 26.9 | 17.4 | 3.82
10 | OCCO[P+]1(OCCO)n2c3ccc2C(c2ccccc2)=C2C=CC(=N2)C(c2ccccc2)=c2ccc(n21)=C(c1ccccc1)C1=NC(=C3c2ccccc2)C=C1 | 1.93 | 1.74 | 1.04 | 0.206 | 0.701 | 41.4 | 0.17 |  | 18 | 0.294
11 | COc1cc(-c2nc3nc(N4CCN(C)CC4)ccc3[nH]2)c(OC)c2[nH]c(COC(C)=O)nc12 | > 100 | > 100 | > 100 | > 100 |  | > 100 | > 100 | > 100 | > 100 | > 100
12 | O=C(O)C1SCCS1 | > 100 | > 100 | > 100 |  | > 100 | > 100 | > 100 | > 100 | > 100 | > 100
13 | COC(=O)c1cccc(C(=O)OC)c1 | > 100 |  |  |  | > 100 |  |  |  |  | > 100
14 | CCOC12SC(=Nc3ccc(C)cc3)NN1C(=S)N(C)N=C2C (stereo not given) | > 100 |  | > 100 |  | > 100 |  | > 100 | > 100 | > 100 | > 100
15 | OCC(O)C(O)C(O)C(/C=N\Nc1ncnc2ccc(Br)cc12)=N/Nc1ncnc2ccc(Br)cc12 (stereo not given) | > 100 | > 100 | > 100 | > 100 | > 100 |  | > 100 |  | > 100 | > 100
16 | c1ccc(C2=C(c3ccccc3)P(c3ccccc3)C2)cc1 (stereo not given) | > 100 | > 100 |  | > 100 | > 100 | > 100 | > 100 |  |  | > 100
17 | CC(C)(C)OC(=O)NCC(=O)N1CCCN(C(=O)CNC(=O)OC(C)(C)C)CC1 | > 100 | > 100 | > 100 | > 100 | > 100 | > 100 | > 100 | > 100 | > 100 | 
18 | CC(=O)Nc1ccc(-c2nnc(SCC(=O)Nc3ccccc3C)o2)cc1 | > 100 |  |  |  | > 100 |  | > 100 | > 100 | > 100 | > 100
19 | COc1cc(CNc2nc3cc(C(F)(F)F)ccc3nc2C)cc(OC)c1OC | > 100 | > 100 | 67.4 | 39.7 | 50.7 |  | > 100 |  | 73.9 | 76.1
20 | O=C1C[C@H](c2ccccc2)C2(C(=O)c3ccccc3C2=O)[C@H](c2ccccc2)C1 |  | > 100 |  | > 100 | > 100 | > 100 | > 100 | > 100 | > 100 | > 100
21 | c1ccc(Nc2nnc(-c3nsc4ccccc34)o2)cc1 | > 100 |  | > 100 |  | > 100 |  | > 100 | > 100 | > 100 | > 100
22 | Cc1c(F)c(N)c2c(=O)cc(-c3ccc(NC(=O)C(N)CCCN=C(N)N)c(F)c3)oc2c1F (stereo not given) | > 100 | > 78.9 | > 100 | 71.9 | > 100 | > 100 | > 82.8 |  | > 100 | > 100
23 | O=C(NN1C(=O)C=CC1=O)c1ccccc1Nc1ccccc1C(=O)NN1C(=O)C=CC1=O |  | > 100 | > 100 |  | > 100 | > 100 | > 100 | > 100 | > 100 | > 100
24 | Cc1n(CC(=O)c2ccccc2)nc2sc(N)n[n+]12 | > 100 | > 100 | > 100 | > 100 | > 100 | > 100 | > 100 | 37.4 | > 100 | 

Row | SMILES | TGI (A549 NSCLC) [µM] | TGI (DU-145 prostate) [µM] | TGI (EKVX NSCLC) [µM] | TGI (HS 578T breast) [µM] | TGI (MOLT-4 leukemia) [µM] | TGI (NCI/ADR-RES ovarian) [µM] | TGI (OVCAR-8 ovarian) [µM] | TGI (UACC-62 melanoma) [µM] | TGI (K-562 leukemia) [µM] | TGI (SR leukemia) [µM]
25 | COc1cc(C(SCc2ccccc2)SCc2ccccc2)ccc1O |  | > 10 | > 10 | > 10 | > 10 | > 10 | > 10 | > 10 | > 10 | > 10
26 | O=C(O)/C=C/C(=O)O | > 100 | > 100 | > 100 | > 100 | > 100 | > 100 | > 100 |  | > 100 | > 100
27 | O=C(C#Cc1cn(C2CC(O)C(CO)O2)c(=O)[nH]c1=O)c1ccccc1 (stereo not given) | > 100 | > 100 | > 100 | > 100 |  | > 100 | > 100 | > 100 |  | > 100
28 | O=C(/C=C/c1ccccc1O)/C=C/c1ccccc1O | 6.38 | 3.2 |  | 12.3 | > 100 | 4.88 | 5.08 | 3.31 | > 100 | > 100
29 | C[C@H](CCC1=NCCN1)[C@H]1CC[C@H]2[C@@H]3CC[C@@H]4C[C@H](O)CC[C@]4(C)[C@H]3C[C@H](O)[C@]12C |  | 28.9 | 34.4 | 27.8 | 16.1 | > 100 | 28.8 | 26.3 | 21 | 
30 | Nc1nc2cc(CNc3ccc(C(=O)NC(CCC(=O)O)C(=O)O)cc3)ccc2nc1-c1ccccc1 (stereo not given) | > 10 | > 10 | > 10 | > 10 | > 10 | > 10 | > 10 | > 10 | > 10 | 
31 | COc1ccc(/C=N/n2c(Cc3ccc(Cl)cc3)n[nH]c2=O)c(OC)c1 | > 100 | > 100 | > 100 | 37.3 | > 100 | 45.2 | 95.5 | 66.6 | > 100 | 
32 | CC(=O)OCC1OC(c2nnc(C)o2)=CC(OC(C)=O)C1OC(C)=O (stereo not given) | > 100 | > 100 | > 100 | > 100 | > 100 | > 100 | > 100 |  | > 100 | > 100
33 | CN1CC2CC(C1)c1cccc(=O)n1C2 (stereo not given) | > 100 | > 100 | > 100 | > 100 |  | > 100 | > 100 | > 100 |  | 
34 | CC(=O)NC1=C(C)C(=O)c2c(nc3n2CC[C@H]3OC(C)=O)C1=O | 24.8 | 29.4 | 17.5 | 9.21 |  | 15.6 | 6.75 | 3.77 | > 100 | 
35 | CC(=N\N=C\c1ccccn1)/C(C)=N/N=C(C)/C(C)=N/N=C(C)/C(C)=N/N=C/c1ccccn1 | > 100 | > 100 | > 100 | > 100 | > 100 | > 100 | > 100 |  | > 100 | > 100
36 | CN1CCCCC(C(O)(c2ccccc2)c2ccccc2)C1=O (stereo not given) | > 100 |  | > 100 |  | > 100 |  | > 100 | > 100 | > 100 | > 100
37 | Cc1nnc2sc(N/N=C/c3ccccc3)nn12 | > 100 | > 100 | > 100 | > 100 | > 100 | > 100 | > 100 | > 100 | > 100 | 
38 | CCS(=O)(=O)c1c2cc(OC)ccc2nc2ccc(OC)cc12 | > 100 | > 100 | > 100 |  | > 100 | > 100 | > 100 | > 100 | > 100 | > 100
39 | CC[C@@H]1CC[C@@H]2[C@H](CC[C@]3(C)[C@@H](OS(=O)(=O)c4ccc(C)cc4)CC[C@@H]23)[C@H]1CO | > 100 | > 100 | > 100 | > 100 | > 100 | > 100 | > 100 |  | > 100 | > 100
40 | COC1/C=C/C(C)C(C(C)C(OC)C(C)CCC(=O)C(C)C(C/C=C/N(C)C=O)OC)OC(=O)/C=C/C=C(\C)CC(OC)C(OC)C2=CC(=O)O[C@@H](C(C)C(OC)CC(OC)/C=C/C(C)C(O)C1)[C@H]2O (stereo not given in full) | 0.781 |  | 0.441 | 0.16 | > 100 | 0.766 | 0.829 | 0.314 | > 100 | > 31.6
41 | N#Cc1c(N2CCN(c3ccc([N+](=O)[O-])cc3)CC2)[n+](=O)c2ccc(Cl)cc2n1[O-] | > 24.4 | 6.7 | 10.8 | > 100 | 8.52 | 7.85 | > 22.9 |  | > 100 | 
42 | C/C=C\C(CC(=O)NCCC1CN(C(=O)c2ccccc2)c2ccccc21)CC(=O)OC (stereo not given) | > 100 | > 100 | > 100 | > 100 | > 100 | > 100 | > 100 | > 100 | > 100 | 
43 | COc1ccc2c(c1)-c1nn(CCN(C)C)c3ccc(C(=O)NCCCN(C)CCCNC(=O)c4ccc5c6c(nn5CCN(C)C)-c5cc(OC)ccc5Nc46)c(c13)N2 | 1.17 | 0.952 | 1.68 |  | 0.0653 | > 62.9 | 0.977 | 0.23 | 1.14 | 3.39
44 | COC(=O)n1c(CBr)c(Br)c2ccccc21 | > 100 |  |  |  | 76.3 |  | > 100 | 86.4 | > 100 | 80.6
45 | COc1cc(C2S/C(=C/c3ccccc3)C(=O)N2c2cccc([N+](=O)[O-])c2)cc(OC)c1OC (stereo not given) | > 100 |  | > 100 | > 100 | > 100 | > 100 | > 100 | > 100 | > 100 | > 100
46 | C#CCOC(=O)C(N)CCCN=C(N)N (stereo not given) | > 100 | > 100 | > 100 | > 100 | > 100 | > 100 | > 100 |  |  | > 100
47 | N#Cc1nc(/C=C/c2ccccc2)oc1N | > 100 | > 100 | > 100 | > 100 | > 100 | > 100 | > 100 |  | > 100 | 2.9
